Where two headings read alike, the source gives them in different places.
Columns and labels:
Wistar rats [1] = format: in vivo
Experimental: In the study of antipyretic properties of the formula I compound, were taken female and male Wistar rats aged 6-7 weeks, with a body mass of 180-220 g. The number of animals in each group was 10.
The febrile reaction was caused by subcutaneous administration of a 20% suspension of baking yeast. The rectal temperature was measured with an electrothermometer prior to the introduction of yeast and 18 hours after it (the difference of these measurements is the estimated hyperthermic reaction). The preparation was administered to animals at the peak of hyperthermia once (after 18 hours). The antipyretic effect was evaluated by hyperthermia decrease 2 hours after the injection of the test substance, and then the effect dynamics was recorded at hourly intervals for 7 hours.
The introduction to rats was carried out in the amount of no more than 1 ml/100 g. The concentration of the resulting solution was 7.5 mg/ml.
The difference in temperature after preparation administration and after 18 hours of induction with yeast was taken as the parameter of hyperthermia decrease.
Animals were observed individually after administration throughout the study. […] Wilcoxon nonparametric criterion was used for statistical comparison of experimental groups. Differences were determined at the 0.05 level of significance. The statistical analysis was carried out using the R-studio program.

Wistar rats [2] = assay: Acute (carrageenin) paw edema, anti-inflammatory activity in vivo; parameters: species or system rat; conditions: for ED50: Rattus norvegicus, read-out: ED50 acute inflammation; for Paw volume 0 / Paw volume 3 h: in mL (unit assumed); for Anti-inflammatory effect, %: control = 100.00
Experimental: The experiment was carried out using female and male Wistar rats aged 6-7 weeks with a body mass of 180-220 g. The number of animals in each group was 10.
The acute inflammatory reaction (edema) was reproduced by subplantar (under plantar or plantar aponeurosis) administration of 0.1 ml of 1% carrageenin solution (sulfated polysaccharide from Irish sea moss). The severity of the inflammatory reaction was assessed 3 hours after the induction of inflammation by a change in the volume of the paw (oncometric). The substance of formula I was administered into the stomach with the probe 1 hour before the introduction of the 1% solution of carrageenin. A 0.5% Tween-80 solution was used as a negative control. The anti-inflammatory effect, assessed by a decrease in edema, was expressed as a percentage of the control. According to the results of the action of four doses of the analyte, the calculation of ED50 was performed.
The introduction to rats was carried out in the amount of no more than 1 ml/100 g. The concentration of the resulting solution was 5 mg/ml.
Animals were euthanized by inhalation of carbon dioxide.

[3] = mean value without sex distinction
[4] = female rats, 5 mg/kg intragastric
[5] = female rats, 10 mg/kg intragastric
[6] = female rats, 20 mg/kg intragastric
[7] = female rats, 50 mg/kg intragastric
[8] = male rats, 5 mg/kg intragastric
[9] = male rats, 10 mg/kg intragastric
[10] = male rats, 20 mg/kg intragastric
[11] = male rats, 50 mg/kg intragastric

For `COc1ccc2cc([C@H](C)C(=O)OCc3cnc(C)c(OC(=O)[C@@H](C)c4ccc5cc(OC)ccc5c4)c3COC(=O)[C@@H](C)c3ccc4cc(OC)ccc4c3)ccc2c1` [Compound of formula I, 3-((S)-2-(6-methoxynaphth-2-yl)propanoiloxy)-4,5-bis (((S)-2-(6-methoxinaphtht-2-yl)propanoiloxy)methyl)-2-methylpyridinium (S)-2-(6-methoxynaphth-2-yl) propanoate], the Antipyretic action (Wistar rats [1]; 20 mg/kg, both males and females) was “no antipyretic action was observed”, the “Δ t after 2 hours, (M ± SD)” value (Wistar rats [1]; 20 mg/kg, females) was −0.07 and the “Δ t after 3 hours, (M ± SD)” value (Wistar rats [1]; 20 mg/kg, females) was −0.27. The “Δ t after 4 hours, (M ± SD)” value (Wistar rats [1]; 20 mg/kg, females) was −0.35, the “Δ t after 5 hours, (M ± SD)” value (Wistar rats [1]; 20 mg/kg, females) was 0.34 and the “Δ t after 6 hours, (M ± SD)” value (Wistar rats [1]; 20 mg/kg, females) was −0.01. The “Δ t after 7 hours, (M ± SD)” value (Wistar rats [1]; 20 mg/kg, females) was −0.08, the “Δ t after 2 hours, (M ± SD)” value (Wistar rats [1]; 20 mg/kg, males) was 0.13 and the “Δ t after 3 hours, (M ± SD)” value (Wistar rats [1]; 20 mg/kg, males) was 0.24. The “Δ t after 4 hours, (M ± SD)” value (Wistar rats [1]; 20 mg/kg, males) was 0.02, the “Δ t after 5 hours, (M ± SD)” value (Wistar rats [1]; 20 mg/kg, males) was 0.1 and the “Δ t after 6 hours, (M ± SD)” value (Wistar rats [1]; 20 mg/kg, males) was −0.21. For the same compound, the “Δ t after 7 hours, (M ± SD)” value (Wistar rats [1]; 20 mg/kg, males) was 0.04, the “Level of temperature decrease” value (Wistar rats [1]; 50 mg/kg, 3-4 hours after administration) was 0.34-0.97 °C and the “Δ t after 2 hours, (M ± SD)” value (Wistar rats [1]; 50 mg/kg, females) was 0.87. For the same compound, the “Δ t after 3 hours, (M ± SD)” value (Wistar rats [1]; 50 mg/kg, females) was 0.91, the “Δ t after 4 hours, (M ± SD)” value (Wistar rats [1]; 50 mg/kg, females) was 0.66 and the “Δ t after 5 hours, (M ± SD)” value (Wistar rats [1]; 50 mg/kg, females) was 0.53. The “Δ t after 6 hours, (M ± SD)” value (Wistar rats [1]; 50 mg/kg, females) was 0.61, the “Δ t after 7 hours, (M ± SD)” value (Wistar rats [1]; 50 mg/kg, females) was 0.5 and the “Temperature lower than before the introduction by” value (Wistar rats [1]; 50 mg/kg, females, 2 and 3 hours after introduction) was 0.9 °C. The Temperature decrease (Wistar rats [1]; 50 mg/kg, females, 4, 5, 6 and 7 hours after introduction) was 0.5-0.7 °C, the “Δ t after 2 hours, (M ± SD)” value (Wistar rats [1]; 50 mg/kg, males) was 0.22 and the “Δ t after 3 hours, (M ± SD)” value (Wistar rats [1]; 50 mg/kg, males) was 0.36. For the same compound, the “Δ t after 4 hours, (M ± SD)” value (Wistar rats [1]; 50 mg/kg, males) was 0.39, the “Δ t after 5 hours, (M ± SD)” value (Wistar rats [1]; 50 mg/kg, males) was 0.25 and the “Δ t after 6 hours, (M ± SD)” value (Wistar rats [1]; 50 mg/kg, males) was 0.11. The “Δ t after 7 hours, (M ± SD)” value (Wistar rats [1]; 50 mg/kg, males) was 0.09, the “Δ t after 2 hours, (M ± SD)” value (Wistar rats [1]; 75 mg/kg, females) was 0.9 and the “Δ t after 3 hours, (M ± SD)” value (Wistar rats [1]; 75 mg/kg, females) was 0.96. The “Δ t after 4 hours, (M ± SD)” value (Wistar rats [1]; 75 mg/kg, females) was 1.39, the “Δ t after 5 hours, (M ± SD)” value (Wistar rats [1]; 75 mg/kg, females) was 1.52 and the “Δ t after 6 hours, (M ± SD)” value (Wistar rats [1]; 75 mg/kg, females) was 1.51. The “Δ t after 7 hours, (M ± SD)” value (Wistar rats [1]; 75 mg/kg, females) was 1.17, the “Δ t after 2 hours, (M ± SD)” value (Wistar rats [1]; 75 mg/kg, males) was 0.76 and the “Δ t after 3 hours, (M ± SD)” value (Wistar rats [1]; 75 mg/kg, males) was 1.15. For the same compound, the “Δ t after 4 hours, (M ± SD)” value (Wistar rats [1]; 75 mg/kg, males) was 1.38, the “Δ t after 5 hours, (M ± SD)” value (Wistar rats [1]; 75 mg/kg, males) was 1.31 and the “Δ t after 6 hours, (M ± SD)” value (Wistar rats [1]; 75 mg/kg, males) was 0.96. For the same compound, the “Δ t after 7 hours, (M ± SD)” value (Wistar rats [1]; 75 mg/kg, males) was 0.92, the “Temperature less than before the introduction for” value (Wistar rats [1]; 75 mg/kg, throughout the experiment) was 0.76-1.5 °C and the ED50 (Wistar rats [2]; females) was 14 mg/kg. For the same compound, the ED50 (Wistar rats [2]; males) was 23 mg/kg, the ED50 (Wistar rats [2]; [3]) was 18.5 mg/kg and the “Inflammatory edema decreased by, vs control group” value (Wistar rats [2]; female rats, 5 mg/kg) was 13.37%. For the same compound, the “Paw volume 0” value (Wistar rats [2]; [4]) was 1.00 ± 0.03, the “Paw volume 3 h” value (Wistar rats [2]; [4]) was 1.94 ± 0.20 and the “Anti-inflammatory effect, %” value (Wistar rats [2]; female rats, 5 mg/kg) was 86.63 ± 17.71%. The “Inflammatory edema decreased by, vs control group” value (Wistar rats [2]; female rats, 10 mg/kg) was 38.64%, the “Paw volume 0” value (Wistar rats [2]; [5]) was 0.96 ± 0.06 and the “Paw volume 3 h” value (Wistar rats [2]; [5]) was 1.60 ± 0.16. The “Anti-inflammatory effect, %” value (Wistar rats [2]; female rats, 10 mg/kg) was 61.36 ± 17.12%, the “Inflammatory edema decreased by, vs control group” value (Wistar rats [2]; female rats, 20 mg/kg) was 67.89% and the “Paw volume 0” value (Wistar rats [2]; [6]) was 0.91 ± 0.09. The “Paw volume 3 h” value (Wistar rats [2]; [6]) was 1.23 ± 0.20, the “Anti-inflammatory effect, %” value (Wistar rats [2]; female rats, 20 mg/kg) was 32.11 ± 15.06% and the “Inflammatory edema decreased by, vs control group” value (Wistar rats [2]; female rats, 50 mg/kg) was 65.47%. The “Paw volume 0” value (Wistar rats [2]; [7]) was 0.91 ± 0.05, the “Paw volume 3 h” value (Wistar rats [2]; [7]) was 1.26 ± 0.23 and the “Anti-inflammatory effect, %” value (Wistar rats [2]; female rats, 50 mg/kg) was 34.53 ± 18.52%. The “Inflammatory edema decreased by, vs control group” value (Wistar rats [2]; male rats, 5 mg/kg) was 12.39%, the “Paw volume 0” value (Wistar rats [2]; [8]) was 0.89 ± 0.07 and the “Paw volume 3 h” value (Wistar rats [2]; [8]) was 1.87 ± 0.21. For the same compound, the “Anti-inflammatory effect, %” value (Wistar rats [2]; male rats, 5 mg/kg) was 87.61 ± 19.75%, the “Inflammatory edema decreased by, vs control group” value (Wistar rats [2]; male rats, 10 mg/kg) was 23.57% and the “Paw volume 0” value (Wistar rats [2]; [9]) was 0.93 ± 0.06. For the same compound, the “Paw volume 3 h” value (Wistar rats [2]; [9]) was 1.84 ± 0.23, the “Anti-inflammatory effect, %” value (Wistar rats [2]; male rats, 10 mg/kg) was 76.43 ± 22.74% and the “Inflammatory edema decreased by, vs control group” value (Wistar rats [2]; male rats, 20 mg/kg) was 51.25%. For the same compound, the “Paw volume 0” value (Wistar rats [2]; [10]) was 0.93 ± 0.05, the “Paw volume 3 h” value (Wistar rats [2]; [10]) was 1.51 ± 0.16 and the “Anti-inflammatory effect, %” value (Wistar rats [2]; male rats, 20 mg/kg) was 48.75 ± 16.39%. For the same compound, the “Inflammatory edema decreased by, vs control group” value (Wistar rats [2]; male rats, 50 mg/kg) was 62.34%, the “Paw volume 0” value (Wistar rats [2]; [11]) was 1.04 ± 0.20 and the “Paw volume 3 h” value (Wistar rats [2]; [11]) was 1.54 ± 0.45. For the same compound, the “Anti-inflammatory effect, %” value (Wistar rats [2]; male rats, 50 mg/kg) was 37.66 ± 19.16% and the ED50 acute inflammation (Wistar rats [2]; [3]) was 19 mg/kg.

— patent publication US10688084B2 (priority 2016, dated 2020)
